Assay results reported in patent US20180118801A1, “COMPOSITIONS AND METHODS FOR DIAGNOSING AND TREATING AUTOIMMUNE DISEASES” (THE REGENTS OF THE UNIVERSITY OF COLORADO, a body corporate, priority 2015, published 2018).
“Also recorded” adds a separate entry of the source.

Key:
Experiment in all cases: T cell antigen assay, IFN-gamma ELISA response of T cell clone
Assay type in all cases: cell-based, NOD mouse
[1] = test system: T cell clone BDC-6.9; details: for T cell recognition/activation by HIP sequence (IFN-gamma response): BDC-6.9 (same TCR as BDC-9.3); for IFN-gamma T cell response to peptides: BDC-6.9, synthetic peptides
Method: (§1) The antigenicity of biochemical fractions, peptides, or reaction mixtures was assessed through the IFN-y responses of T-cell clones. In 96-well microtiter plates, assay cultures contained 2×10^4 responder T cells, 2.5×10^4 NOD peritoneal exudate cells as antigen-presenting cells, and -cell antigen. ELISA (BD Biosciences) was used to determine IFN-gamma production by the responder T cells. Aliquots of cell extracts (β-Mem) were used as positive controls throughout the experiments. Test wells contained biochemical fractions, peptides, or reaction mixtures. Synthetic peptides (>95%) were obtained from CHI Scientific.
(§2) For the synthesis of a HIP peptide through chemical crosslinking of an N-terminally acetylated “left peptide” and an unmodified “right peptide”, a two-step crosslinking procedure was adopted. To ensure water solubility of peptides, “left peptides” (>85%, CHI-Scientific) were N-terminally extended and “right peptides” (>85%, CHI-Scientific) were C-terminally extended through the addition of two arginine residues separated by an alanine residue from the core amino acid sequences. A total of 10 μl “left peptide” (10 mM: SEQ ID NO: 177 Acetyl-RRAHLVEAL. SEQ ID NO: 178 Acetyl-RRALVEALY, SEQ ID NO: 179 Acetyl-RRAVEALYL, SEQ ID NO. 180 Acetyl-RRAGDLQTL, SEQ ID NO: 181 Acetyl-RRADLQTLA, SEQ ID NO: 182 Acetyl-RRALQTLAL, SEQ ID NO: 183 Acetyl-RRAQTLALE, or SEQ ID NO: 184 Acetyl-RRATLALEV) was added to 74.5 μl reaction buffer (20 mM MES, 150 mM NaCl) in a 1.5 ml eppendorf tube, followed by the addition of a carbodiimide, such as, for example, 1.5 μl freshly prepared 500 mM 1-Ethyl-3-[3-dimethylaminopropyl]carbodiimide hydrochloride (EDC) and 1.5 μl 1000 mM N-hydroxysuccinimide (NHS). After 15 min of incubation at room temperature, a reducing agent was added, for example, […] of DTT (1000 mM) were added to quench residual EDC. Following another 15 min of incubation at room temperature, […] of “right peptide” (10 mM: SEQ ID NO: 185 KCNTATARR, SEQ ID NO: 186 NAARDPARR, SEQ ID NO: 187 TPVRSGTARR, or SEQ ID NO: 188 WSRMDARR) were added. Reaction mixtures were incubated for 16 h at 37° C., prior to the direct addition of […] to the T cell assay plates (see for example U.S. Pat. No. 5,589,458). ELISA was used to measure IFN-gamma T cell responses to individual HIP reaction mixtures. For each T cell clone, the ELISA absorbance values to all peptides were averaged and the standard deviation was calculated. If the absorbance value toward an individual HIP was three times the standard deviation (3×sd) above the average signal, the response toward the peptide was classified as positive.

[2] = test system: T cell clone BDC-9.3; details: for T cell recognition/activation by HIP sequence (IFN-gamma response): BDC-9.3, synthetic HIP library screen (FIG. 2E); for IFN-gamma T cell response to peptides: BDC-9.3, exemplifying the IAPP-reactive clones, synthetic peptides, FIG. 4B
Method: as §1, §2

[3] = test system: CD4 T cell clone BDC-2.5; details: for T cell recognition/activation by HIP sequence (IFN-gamma response): BDC-2.5, synthetic HIP library screen, positive if ELISA absorbance 3×sd above average (FIG. 2B); for IFN-gamma T cell response to peptides: BDC-2.5, illustrating the WE14-reactive clones, synthetic peptides, FIG. 4A
Method: as §1, §2

[4] = test system: CD4 T cell clone BDC-9.46; details: synthetic HIP library screen (FIG. 2D)
Method: as §1, §2

[5] = test system: CD4 T cell clone BDC-10.1; details: synthetic HIP library screen (FIG. 2C)
Method: as §1, §2

## DLQTLALNAAR [Sequence 2]
[1]
  T cell recognition/activation by HIP sequence (IFN-gamma response): recognized
[2]
  T cell recognition/activation by HIP sequence (IFN-gamma response): recognized

## DLQTLALWSRM [Sequence 1]
[3]
  T cell recognition/activation by HIP sequence (IFN-gamma response): recognized
[4]
  T cell recognition/activation by HIP sequence (IFN-gamma response): recognized
[5]
  T cell recognition/activation by HIP sequence (IFN-gamma response): recognized

## IAPP2-HIP: HIP spanning full-length Ins2 C-Peptide fragment ending in LQTLAL on the N-terminal side and the entire IAPP2 sequence on the C-terminal side (EVEDPQVAQLELGGGPGAGDLQTLALNAAGDPNRESLDFLLV)
[1]
  IFN-gamma T cell response to peptides: low nanomolar concentrations
[2]
  IFN-gamma T cell response to peptides: low nanomolar concentrations

## IAPP2: IAPP propeptide 2, naturally occurring cleavage product found in secretory granules of β-cells (NAAGDPNRESLDFLLV)
[1]
  IFN-gamma T cell response to peptides: Neither BDC-9.3 nor BDC-6.9 recognize
[2]
  IFN-gamma T cell response to peptides: Neither BDC-9.3 nor BDC-6.9 recognize; also recorded: not responsive

## LQTLALNAARD [SEQ ID NO: 197]
[1]
  T cell recognition/activation by HIP sequence (IFN-gamma response): recognized
[2]
  T cell recognition/activation by HIP sequence (IFN-gamma response): recognized

## LQTLALWSRMD [SEQ ID NO: 199]
[3]
  T cell recognition/activation by HIP sequence (IFN-gamma response): activate
[4]
  T cell recognition/activation by HIP sequence (IFN-gamma response): activate
[5]
  T cell recognition/activation by HIP sequence (IFN-gamma response): activate

## WE14-HIP: HIP spanning full-length Ins2 C-Peptide fragment ending in LQTLAL on the N-terminal side and the entire WE14 sequence on the C-terminal side (EVEDPQVAQLELGGGPGAGDLQTLALWSRMDQLAKELTAE)
[3]
  IFN-gamma T cell response to peptides: low nanomolar concentrations

## WE14: naturally occurring peptide cleavage product of chromogranin A (ChgA) (WSRMDQLAKELTAE)
[3]
  IFN-gamma T cell response to peptides: weakly antigenic; also recorded: poorly antigenic; also recorded: high concentrations

## insulin 2 C-peptide fragment ending with the amino acid sequence SEQ ID NO: 192 DLQTLAL: insulin 2 C-peptide fragment ending with DLQTLAL (EVEDPQVAQLELGGGPGAGDLQTLAL)
[3]
  IFN-gamma T cell response to peptides: None of the clones respond
[2]
  IFN-gamma T cell response to peptides: None of the clones respond

## insulin 2 C-peptide: full length mouse insulin 2 C-peptide (EVEDPQVAQLELGGGPGAGDLQTLALEVAQQ)
[3]
  IFN-gamma T cell response to peptides: None of the clones respond
[3]; listed as Ins2 C-Peptide
  IFN-gamma T cell response to peptides: None of the clones respond
[3]; listed as insulin C-peptide
  IFN-gamma T cell response to peptides: none of the WE14-reactive T cell clones recognize
[2]
  IFN-gamma T cell response to peptides: None of the clones respond
